Literature values as cited in patent US20240397917A1, “ANIMAL PRODUCTION METHOD” (DSM IP ASSETS B.V., priority 2021, published 2024).

Key:
[1] = in vivo
[2] = per 1% increase in plasma levels of 25-OH-D3; average of broiler trials

C=C1CC[C@H](O)C/C1=C/C=C1\CCC[C@]2(C)[C@@H]([C@H](C)CCCC(C)(C)O)CC[C@@H]12 [HyD, calcidiol]
absorption (at the same level of inclusion in feed): 74.9%
absorption in the intestine in comparison to Vitamin D3 (when fed): more efficient absorption
excretion in comparison to Vitamin D3 (when fed): less excretion
retention in comparison to Vitamin D3 (when fed): greater retention
dose without toxic effects [1]: up to 10 times its recommended dose
improvement in ADG [2]: 0.029%
improvement in bone strength [2]: 0.173%
improvement in breast meat yield [2]: 0.008%
improvement in gait score [2]: 0.296%
